For this assay, the target named is MAP kinase-activated protein kinase 2 (Homo sapiens, UniProt P49137). The assay is described as follows: Inhibition of GST-tagged MAPKAPK2 assessed as [33P] incorporation after 40 mins by scintillation proximity assay. For orientation: SPA uses beads or plates that emit light when radiolabelled molecules are held near them.

Results on two compounds are retold here after ChEMBL document CHEMBL1154227, “Guttiferones O and P, prenylated benzophenone MAPKAPK-2 inhibitors from Garcinia solomonensis” (J Nat Prod, 2009).

Sequence of MAP kinase-activated protein kinase 2 (P49137 whole entry): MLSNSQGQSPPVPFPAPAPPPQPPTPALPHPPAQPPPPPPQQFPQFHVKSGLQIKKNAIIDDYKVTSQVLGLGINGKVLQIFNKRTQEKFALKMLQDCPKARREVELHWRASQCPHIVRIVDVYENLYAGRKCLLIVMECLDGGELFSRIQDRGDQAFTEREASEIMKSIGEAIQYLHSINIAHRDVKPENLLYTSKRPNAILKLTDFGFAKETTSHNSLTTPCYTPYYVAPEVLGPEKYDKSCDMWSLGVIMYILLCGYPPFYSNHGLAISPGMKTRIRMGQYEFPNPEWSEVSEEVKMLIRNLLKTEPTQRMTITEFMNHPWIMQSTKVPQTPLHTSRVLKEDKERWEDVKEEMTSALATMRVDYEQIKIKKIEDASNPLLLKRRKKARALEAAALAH

As a reminder, the IC50 is the concentration needed to halve the response being measured. As to `CC(C)=CCC/C(C)=C/C[C@]12C[C@@H](CC=C(C)C)C(C)(C)[C@](C/C=C(\C)CCC=C(C)C)(C(=O)C(C(=O)c3ccc(O)c(O)c3)=C1O)C2=O` [GUTTIFERONE O], the IC50 stood at 22 µM.
As for `CC(C)=CCC/C(C)=C/C[C@]12C[C@@H](CC=C(C)C)[C@](C)(CCC=C(C)C)[C@](CC=C(C)C)(C(=O)C(C(=O)c3ccc(O)c(O)c3)=C1O)C2=O` [GUTTIFERONE P], the concentration for half-maximal inhibition (IC50) came to 22 µM.
